One compound from PMC8018242, “AbhemC encoding porphobilinogen deaminase plays an important role in chlorophyll biosynthesis and function in albino Ananas comosus var. bracteatus leaves” (PeerJ, 2021) can be followed below.

This experiment has as its target T1, AbHEMC (porphobilinogen deaminase, PBGD) (Ananas comosus, UniProt A0A1B2LUE6).
T1 construct: gene hemC; E. coli Rosetta-gami (DE3); about 45 kD on SDS-PAGE
The experiment in a line: in vitro PBGD activity assay (method of Lee et al. […]). Format: biochemical. To be noted: recombinant fusion protein; substrate inferred from the named PBGD activity, assay conditions not given.

T1 sequence (A0A1B2LUE6 entry or part of it): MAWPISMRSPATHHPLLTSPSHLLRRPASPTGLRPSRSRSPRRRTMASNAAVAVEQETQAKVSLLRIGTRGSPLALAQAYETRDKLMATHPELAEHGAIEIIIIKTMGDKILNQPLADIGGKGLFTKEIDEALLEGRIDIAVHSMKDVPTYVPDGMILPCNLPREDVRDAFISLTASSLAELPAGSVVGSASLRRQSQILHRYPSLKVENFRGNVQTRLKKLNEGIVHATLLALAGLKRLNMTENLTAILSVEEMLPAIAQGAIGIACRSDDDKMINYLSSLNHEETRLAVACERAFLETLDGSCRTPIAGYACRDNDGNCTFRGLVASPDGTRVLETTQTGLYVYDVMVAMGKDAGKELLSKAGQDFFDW

With `NCc1[nH]cc(CCC(=O)O)c1CC(=O)O` [porphobilinogen], the “in vitro PBGD activity assay (method of Lee et al. 1992)” value was “in vitro analysis showed that the prokaryotic-expressed AbHEMC protein had PBGD activity”.
